Data published in ChEMBL document CHEMBL1201862, “PubChem BioAssay data set” (2004).
Calls of active or inactive are those of the source.

Assays:
[1] = target: T1, Replicative DNA helicase DnaB (Mycobacterium tuberculosis, UniProt P9WMR3); experiment: DnaB intein splicing inhibitors, dose response, biochemical, cell-free fluorescence (AID 449749); assay type: functional
T1 sequence (P9WMR3 whole entry): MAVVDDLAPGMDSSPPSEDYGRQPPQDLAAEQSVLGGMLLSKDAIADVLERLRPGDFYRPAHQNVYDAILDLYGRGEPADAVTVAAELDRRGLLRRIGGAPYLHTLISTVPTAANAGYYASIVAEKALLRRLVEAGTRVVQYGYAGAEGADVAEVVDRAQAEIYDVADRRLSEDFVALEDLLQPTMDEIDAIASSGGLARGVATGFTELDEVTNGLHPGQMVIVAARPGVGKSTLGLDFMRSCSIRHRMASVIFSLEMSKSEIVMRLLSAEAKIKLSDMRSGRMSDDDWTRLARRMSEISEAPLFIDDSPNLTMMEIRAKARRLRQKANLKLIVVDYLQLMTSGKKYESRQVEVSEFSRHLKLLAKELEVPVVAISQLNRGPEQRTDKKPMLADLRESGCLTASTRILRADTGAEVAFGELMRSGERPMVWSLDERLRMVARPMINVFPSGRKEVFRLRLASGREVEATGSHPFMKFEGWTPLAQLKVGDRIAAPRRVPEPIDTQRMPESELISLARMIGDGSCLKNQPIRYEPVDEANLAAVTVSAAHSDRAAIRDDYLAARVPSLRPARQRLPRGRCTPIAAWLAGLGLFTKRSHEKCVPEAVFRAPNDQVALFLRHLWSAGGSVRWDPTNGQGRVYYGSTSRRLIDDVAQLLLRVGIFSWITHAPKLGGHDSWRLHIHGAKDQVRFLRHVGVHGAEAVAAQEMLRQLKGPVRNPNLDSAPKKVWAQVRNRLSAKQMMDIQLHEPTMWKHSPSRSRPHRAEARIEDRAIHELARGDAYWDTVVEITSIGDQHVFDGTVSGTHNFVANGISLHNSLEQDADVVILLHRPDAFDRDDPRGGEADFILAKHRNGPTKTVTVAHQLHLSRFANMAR

[2] = target: T2, Protein RecA (Mycobacterium tuberculosis, UniProt P9WHJ3); experiment: Fluorescence Cell-Free Homogeneous Dose Retest to Identify Inhibitors of RecA-Intein Splicing Activity. [Related pubchem assays (depositor defined):AID2097, AID2223, AID489010, AID492950]; assay type: functional
T2 sequence (P9WHJ3 whole entry): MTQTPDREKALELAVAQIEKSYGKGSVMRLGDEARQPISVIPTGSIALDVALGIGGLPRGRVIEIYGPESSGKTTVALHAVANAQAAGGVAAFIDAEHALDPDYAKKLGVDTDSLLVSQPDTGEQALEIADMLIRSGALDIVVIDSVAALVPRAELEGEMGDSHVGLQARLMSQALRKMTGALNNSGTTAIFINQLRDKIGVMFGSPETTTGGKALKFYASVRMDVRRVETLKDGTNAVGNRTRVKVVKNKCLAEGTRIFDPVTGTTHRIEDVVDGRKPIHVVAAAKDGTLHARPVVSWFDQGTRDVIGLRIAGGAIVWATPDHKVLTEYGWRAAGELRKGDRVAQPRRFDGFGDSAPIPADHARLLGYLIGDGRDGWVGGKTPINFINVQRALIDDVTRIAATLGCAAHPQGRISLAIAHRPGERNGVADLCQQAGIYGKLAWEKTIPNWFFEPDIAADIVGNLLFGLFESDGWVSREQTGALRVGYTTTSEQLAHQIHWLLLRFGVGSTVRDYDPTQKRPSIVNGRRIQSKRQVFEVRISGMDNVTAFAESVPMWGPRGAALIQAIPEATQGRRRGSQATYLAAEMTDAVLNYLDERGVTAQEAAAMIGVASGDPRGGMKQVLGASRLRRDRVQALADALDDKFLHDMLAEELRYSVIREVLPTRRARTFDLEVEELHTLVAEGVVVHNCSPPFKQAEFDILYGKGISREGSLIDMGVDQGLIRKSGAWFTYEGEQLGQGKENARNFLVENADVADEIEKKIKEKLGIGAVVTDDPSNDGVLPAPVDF

[3] = target: T3, Cytochrome P450 1A2 (Homo sapiens, UniProt P05177);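 note: PubChem cytochrome P450 panel assay, CYP1A2 panel member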
T3 sequence (P05177 whole entry): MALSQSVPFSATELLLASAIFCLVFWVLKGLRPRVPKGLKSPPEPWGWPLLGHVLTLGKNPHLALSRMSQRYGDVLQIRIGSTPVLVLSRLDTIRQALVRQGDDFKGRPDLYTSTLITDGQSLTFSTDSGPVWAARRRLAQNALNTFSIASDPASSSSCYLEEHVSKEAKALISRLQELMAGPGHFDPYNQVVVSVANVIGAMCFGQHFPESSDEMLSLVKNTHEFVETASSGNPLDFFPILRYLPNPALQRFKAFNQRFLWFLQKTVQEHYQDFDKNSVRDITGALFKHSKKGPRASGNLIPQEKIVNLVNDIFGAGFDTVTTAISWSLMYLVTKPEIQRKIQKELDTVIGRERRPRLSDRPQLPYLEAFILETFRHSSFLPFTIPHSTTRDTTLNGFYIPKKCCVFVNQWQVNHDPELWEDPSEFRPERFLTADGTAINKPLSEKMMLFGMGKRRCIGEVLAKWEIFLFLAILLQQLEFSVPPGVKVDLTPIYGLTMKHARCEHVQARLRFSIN

[4] = target: Cytochrome P450 2D6 (Homo sapiens, UniProt P10635)
[5] = target: Cytochrome P450 3A4 (Homo sapiens, UniProt P08684);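 note: CYP3A4 tested as one member of a cytochrome P450 panel screen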
[6] = target: Cytochrome P450 2C19 (Homo sapiens, UniProt P33261); experiment: Cytochrome panel assay with activity outcomes. Panel member name: p450-cyp2c19 Compounds with AC50 equal or less than 10 uM are considered active; assay type: functional; settings: read-out: AC50
[7] = target: Cytochrome P450 2C9 (Homo sapiens, UniProt P11712)
[8] = Luminescence Cell-Based Dose Response HTS to Identify Activators of Luciferase Translation or Activity in H4 […] Cells. [Related pubchem assays: 1829 (Project Summary), 1814 (Primary HTS)]; assay type: functional
[9] = tested on: H4; experiment: Luminescence Cell-Based Dose Response HTS to Identify Activators of 5'UTR Stem-Loop Driven Prion Protein mRNA Translation in H4 Neuroglioblastoma Cells. [Related pubchem assays: 1829 (Project Summary), 1814 (Primary HTS)]; assay type: functional; settings: Homo sapiens

Cytochrome P450 2D6, sequence (P10635 whole entry): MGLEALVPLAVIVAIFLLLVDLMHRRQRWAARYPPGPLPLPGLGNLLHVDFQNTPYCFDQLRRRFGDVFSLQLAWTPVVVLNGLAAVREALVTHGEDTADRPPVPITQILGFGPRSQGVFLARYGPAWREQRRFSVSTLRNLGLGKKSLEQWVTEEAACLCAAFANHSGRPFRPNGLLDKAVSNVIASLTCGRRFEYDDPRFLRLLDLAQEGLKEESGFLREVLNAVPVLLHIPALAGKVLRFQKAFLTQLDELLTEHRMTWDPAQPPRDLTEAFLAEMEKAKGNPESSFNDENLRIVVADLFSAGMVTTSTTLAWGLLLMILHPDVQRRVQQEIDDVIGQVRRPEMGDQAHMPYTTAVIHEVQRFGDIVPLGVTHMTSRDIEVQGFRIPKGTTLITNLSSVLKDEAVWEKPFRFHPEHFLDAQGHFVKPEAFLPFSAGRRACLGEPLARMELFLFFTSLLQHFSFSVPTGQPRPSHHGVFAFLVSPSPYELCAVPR
Cytochrome P450 3A4, sequence (P08684 whole entry): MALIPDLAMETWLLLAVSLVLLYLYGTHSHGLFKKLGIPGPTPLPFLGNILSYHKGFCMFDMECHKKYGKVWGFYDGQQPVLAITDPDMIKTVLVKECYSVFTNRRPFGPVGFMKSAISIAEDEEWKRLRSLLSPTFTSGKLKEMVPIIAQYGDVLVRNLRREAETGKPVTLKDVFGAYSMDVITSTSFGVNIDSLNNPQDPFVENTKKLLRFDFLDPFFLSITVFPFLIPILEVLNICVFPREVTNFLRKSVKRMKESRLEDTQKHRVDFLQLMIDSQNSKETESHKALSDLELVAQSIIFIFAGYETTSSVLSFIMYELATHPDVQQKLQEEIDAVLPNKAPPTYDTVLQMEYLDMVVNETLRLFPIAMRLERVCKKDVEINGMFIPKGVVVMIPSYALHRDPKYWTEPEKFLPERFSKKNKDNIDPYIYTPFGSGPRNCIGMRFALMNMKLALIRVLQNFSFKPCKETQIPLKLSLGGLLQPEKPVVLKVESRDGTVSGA
Cytochrome P450 2C19, sequence (P33261 whole entry): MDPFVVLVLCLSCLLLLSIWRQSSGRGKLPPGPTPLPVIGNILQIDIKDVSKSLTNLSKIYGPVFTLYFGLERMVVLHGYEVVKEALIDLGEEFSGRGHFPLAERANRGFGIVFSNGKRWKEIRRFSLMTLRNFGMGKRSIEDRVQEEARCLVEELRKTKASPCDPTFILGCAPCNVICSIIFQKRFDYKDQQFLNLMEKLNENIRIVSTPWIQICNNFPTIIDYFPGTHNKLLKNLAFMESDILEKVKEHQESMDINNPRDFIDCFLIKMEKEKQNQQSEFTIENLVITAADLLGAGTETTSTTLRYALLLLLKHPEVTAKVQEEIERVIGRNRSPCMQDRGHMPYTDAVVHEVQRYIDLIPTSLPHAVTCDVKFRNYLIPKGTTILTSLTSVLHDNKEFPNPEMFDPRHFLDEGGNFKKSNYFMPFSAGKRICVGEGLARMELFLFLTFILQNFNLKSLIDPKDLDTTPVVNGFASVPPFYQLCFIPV
Cytochrome P450 2C9, sequence (P11712 whole entry): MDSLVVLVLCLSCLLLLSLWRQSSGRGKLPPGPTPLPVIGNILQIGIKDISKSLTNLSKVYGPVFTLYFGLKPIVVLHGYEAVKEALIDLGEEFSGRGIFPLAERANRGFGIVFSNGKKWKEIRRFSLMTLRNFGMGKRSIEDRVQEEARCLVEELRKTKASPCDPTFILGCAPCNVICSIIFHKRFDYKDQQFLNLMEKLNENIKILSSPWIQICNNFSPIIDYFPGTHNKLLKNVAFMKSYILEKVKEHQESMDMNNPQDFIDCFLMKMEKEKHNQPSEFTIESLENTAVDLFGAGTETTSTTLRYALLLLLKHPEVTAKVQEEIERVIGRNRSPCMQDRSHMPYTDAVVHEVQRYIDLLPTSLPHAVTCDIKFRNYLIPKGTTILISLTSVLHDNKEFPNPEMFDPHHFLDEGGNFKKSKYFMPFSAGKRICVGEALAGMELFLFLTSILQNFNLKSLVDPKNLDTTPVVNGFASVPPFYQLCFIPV

## O=C1CC/[N+](=C\c2ccccc2Cl)[N-]1
[1]
  AC50: 7.23 µM (active)
[2]
  EC50: 4.02 µM (active)

## CCCCSc1nc(C)cc(N=C(S)Nc2ccc(OC)cc2)n1
[3]
  AC50: 4.47 µM (inconclusive)

## CCCC(=O)Nc1c2c(nn1-c1ccc(C)cc1C)CSC2
[4]
  AC50: 28.2 µM (inconclusive)
[3]
  AC50: 12.6 µM (inconclusive)

## O=C(c1cnc(N2CCN(c3ncccn3)CC2)c2ccccc12)N1CCN(c2ccccn2)CC1
[3]
  AC50: 0.0251 µM (inconclusive)

## O=S(=O)(c1ccccc1)N1CCC2(CC1)CN(c1ccccn1)C2
[4]
  AC50: 20 µM (inconclusive)
[5]
  AC50: 12.6 µM (inconclusive)
[6]
  AC50: 10 µM (inconclusive)

## c1ccc(N2CCC3(CCNCC3)CC2)nc1
[7]
  AC50: 31.6 µM (inconclusive)
[5]
  AC50: 25.1 µM (inconclusive)
[6]
  AC50: 25.1 µM (inconclusive)

## COC(=O)[C@H](Cc1ccccc1)NC(=O)N1CCN(Cc2ccccc2)CC1
[7]
  AC50: 0.01 µM (inconclusive)
[5]
  AC50: 14.1 µM (inconclusive)

## Cc1cccc(Nc2ccccc2C(=O)OCC(=O)NCc2ccco2)c1C
[7]
  AC50: 11.2 µM (inconclusive)

## C[C@@H](C(=O)Nc1ccc2ccccc2c1)[C@@H]1C[C@@]1(C)[C@@H](NC(=O)Oc1ccc(F)cc1)c1ccccc1
[7]
  AC50: 0.251 µM (inconclusive)

## CCC(C)NC(=O)CCS(=O)(=O)c1ccc(Br)s1 (stereo not given)
[7]
  AC50: 12.6 µM (inconclusive)
[4]
  AC50: 28.2 µM (inconclusive)

## CCc1ccc(OCC(=O)NC(=S)Nc2ccc(C)cc2C)c(Br)c1
[7]
  AC50: 0.631 µM (inconclusive)
[5]
  AC50: 31.6 µM (inconclusive)
[3]
  AC50: 4.47 µM (inconclusive)

## FC(F)(F)c1cc(-c2ccco2)nc(NCc2cccs2)n1
[4]
  AC50: 20 µM (inconclusive)
[6]
  AC50: 1.26 µM (inconclusive)

## Cc1ccc(-n2c(C)c(C)c3c(NCCCO)ncnc32)cc1
[8]
  EC50: 119 µM (active)
[9]
  EC50: > 120 µM (not active)

## COc1ccc(C2=Nc3c(c(=O)n(C)c(=O)n3C)C(C(F)(F)F)(C(F)(F)F)N2)cc1
[5]
  AC50: 14.1 µM (inconclusive)
[3]
  AC50: 11.2 µM (inconclusive)

## O=C(NCCOc1nc(N2CCOCC2)nc(N2CCOCC2)n1)Nc1ccccc1
[7]
  AC50: 15.8 µM (inconclusive)
[5]
  AC50: 22.4 µM (inconclusive)

## CC(=O)NC1N=C(C)N(c2ccccc2)C1=O (stereo not given)
[1]
  AC50: 4.66 µM (active)
[2]
  EC50: 10.7 µM (active)

## COc1ccc(C2C(C#N)=C(N)N(Nc3ccccc3)C3=C2C(=O)CC(C)(C)C3)cc1C (stereo not given)
[3]
  AC50: 39.8 µM (inconclusive)

## COC(=O)c1cc2c(ccn2-c2ccc(F)cc2)n1C(C)C
[7]
  AC50: 22.4 µM (inconclusive)
[5]
  AC50: 25.1 µM (inconclusive)

## c1ccc(Nc2ncnc3ccc(-c4ccc5c(c4)OCO5)cc23)cc1
[7]
  AC50: 1.58 µM (inconclusive)
